Results on one compound are retold here after ChEMBL document CHEMBL4673296 (J Med Chem, 2020).

The structures appear in SMILES notation.

The test system of data set [1] is MDA-MB-468. Kind of data set: Induction of apoptosis in human MDA-MB-468 cells assessed as late apoptotic cells at 10 uM measured after 18 hrs in normal growth media by AnnexinV/7-AAD staining based flow cytometric analysis (reference value: 6.8%). Type of data set: functional. (Flow cytometry measures light scatter and fluorescence of single cells or particles in a stream.)

In data set [2] the test system is MDA-MB-468. Kind of data set: Induction of apoptosis in human MDA-MB-468 cells assessed as necrotic cells at 10 uM measured after 18 hrs in normal growth media by AnnexinV/7-AAD staining based flow cytometric analysis (reference value: 0.2%). Type of data set: functional.
For data set [3], the target named is T1, Serine/threonine-protein kinase ULK1 (Homo sapiens, UniProt O75385).
T1 sequence (O75385 whole entry): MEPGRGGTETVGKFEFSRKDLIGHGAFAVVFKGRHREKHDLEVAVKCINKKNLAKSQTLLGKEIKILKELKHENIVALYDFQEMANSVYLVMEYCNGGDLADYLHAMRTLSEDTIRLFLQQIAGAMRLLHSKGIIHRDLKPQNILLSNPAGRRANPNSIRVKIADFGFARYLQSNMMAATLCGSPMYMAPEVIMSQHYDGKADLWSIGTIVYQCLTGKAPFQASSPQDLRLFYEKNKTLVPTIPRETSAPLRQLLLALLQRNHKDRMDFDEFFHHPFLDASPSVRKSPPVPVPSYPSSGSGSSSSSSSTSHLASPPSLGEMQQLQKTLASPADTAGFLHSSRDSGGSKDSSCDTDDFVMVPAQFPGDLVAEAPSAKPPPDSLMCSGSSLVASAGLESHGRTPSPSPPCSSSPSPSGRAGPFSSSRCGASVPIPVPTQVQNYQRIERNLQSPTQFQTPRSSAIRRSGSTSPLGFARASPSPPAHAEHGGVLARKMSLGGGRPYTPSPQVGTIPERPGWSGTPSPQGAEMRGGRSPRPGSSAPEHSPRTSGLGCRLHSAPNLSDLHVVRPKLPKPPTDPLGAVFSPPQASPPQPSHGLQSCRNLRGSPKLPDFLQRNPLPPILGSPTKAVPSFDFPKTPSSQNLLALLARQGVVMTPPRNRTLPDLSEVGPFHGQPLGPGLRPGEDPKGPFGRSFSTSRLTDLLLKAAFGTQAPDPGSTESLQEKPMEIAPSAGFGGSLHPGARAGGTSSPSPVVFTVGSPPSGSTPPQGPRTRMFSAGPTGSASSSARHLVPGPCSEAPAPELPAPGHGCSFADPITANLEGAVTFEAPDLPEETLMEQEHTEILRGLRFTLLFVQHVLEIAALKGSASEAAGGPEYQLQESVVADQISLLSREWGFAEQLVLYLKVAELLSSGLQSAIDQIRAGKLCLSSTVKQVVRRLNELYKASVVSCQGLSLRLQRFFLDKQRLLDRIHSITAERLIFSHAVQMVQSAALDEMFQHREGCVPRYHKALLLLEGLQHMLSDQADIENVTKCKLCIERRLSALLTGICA
Kind of data set: Inhibition of ULK1 (unknown origin) expressed in HEK293T cells incubated for 2 hrs by NanoBRET assay. The format is cell-based. On the technique in general: BRET reads energy transfer from a luciferase to a nearby fluorophore.

The nature of data set [4]: Inhibition of starvation-induced autophagic flux in human MDA-MB-468 cells expressing tandem-labelled mCherryEGFP-LC3 chimeric protein at 10 uM measured after 18 hrs in EBSS media by flow cytometry (Rvb >90%). The format is functional.
Data set [5] relates to MDA-MB-468. As to the kind of experiment: Induction of apoptosis in human MDA-MB-468 cells assessed as viable cells at 10 uM measured after 18 hrs in low-glucose, amino acid-free Earles balanced salt solution (EBSS) media by AnnexinV/7-AAD staining based flow cytometric analysis (reference value: 86.6%). The format is functional. Particulars: read-out: Activity.
Data set [6] is described as follows: Half life in C57BL/6J mouse at 30 mg/kg, po measured upto 24 hrs by LC-MS/MS analysis. Type of data set: ADME, organism-based. Particulars: in vivo.

Regarding `COc1ccc(Nc2ncc(C(F)(F)F)c(NC3CC3)n2)cc1OC`, the Activity is given as 6.8% in the data set on MDA-MB-468 [1] and 0.2% with MDA-MB-468 [2]. Moreover, the concentration for half-maximal inhibition (IC50) (as a rule, the concentration that inhibits the measured activity by half) in data set [3] is 328 nM. In addition, the inhibition (commonly how much of the control response was suppressed) at 10 µM in data set [4] was 60%. The viability at 10 µM in the data set with MDA-MB-468 [5] turned out to be 38.6%. Also, the half-life (commonly how long it takes for the measured level to halve) in data set [6] was 1.7 h.
